The values below come from patent publication US20250032629A1, “NOVEL NUCLEOLIN-BINDING PEPTIDE AND USE THEREOF” (ANYGEN CO., LTD., priority 2020, published 2025).

The subject of test [1] is MCF-10A cells. Description: Cell proliferation assay (WST-1), AGM-330-PTX. The note with it: Homo sapiens, 48 h. The test is classed as cell-based.
Test [2] deals with MDA-MB-231-luc cells. In words: Tumor suppression in breast cancer xenograft model. The test is classed as in vivo, NPG mice. The note with it: for average tumor volume: tail vein. The protocol: FIG. 14B is a schematic representation of the experimental protocol. Here, anesthetized 6-week-old […] NPG mice were inoculated with a 1:1 mix of Matrigel and 1×10^6 MDA-MB-231-luc cells into the mammary fat pad. […] Nuclei were stained with DAPI (blue), and the scale bar is 50 μm. Bar graphs represent the mean±SD, and statistical analyses were performed by one-way ANOVA with Dunnett's multiple comparison. *, **, and *** indicate P<0.05, P<0.01, and P<0.001, respectively. […]
All animal experiments were performed in accordance with IACUC guidelines (GIST-2019-040). For tumorigenesis experiments, anesthetized 6-week-old female NOD-scid Il2rg^−/− mice (NPG™, VITALSTAR) were inoculated in the mammary fat pad with 1×10^6 MDA-MB-231-luc cells in a volume of 100 μl (n=5˜6 for each group). After tumor cell inoculation, when the tumor volume reached approximately 100 mm^3, the mice were randomly divided into the following five groups: (i) control, (ii) low-dose paclitaxel (2 mg/kg), (iii) high-dose paclitaxel (10 mg/kg), (iv) AGM-330 (16.68 mg/kg or 8.34 mg/kg), and (v) AGM-330-PTX (19.05 mg/kg or 10.71 mg/kg). The tumor size was measured twice a week, and the tumor volume was calculated with the following formula:
For the bioluminescent imaging experiment, D-luciferin (150 mg/kg; PerkinElmer) was intraperitoneally injected into each mouse, and an IVIS 100 imaging system (Xenogen, Corporation, Alameda, CA) was used for bioluminescent monitoring. Mice were anesthetized with vaporized isoflurane (BK Pharm, Ilsan, Korea) and placed in an imaging chamber. After 10 min, each animal was imaged with an exposure time of 1 min. All bioluminescent image data were provided by Living Image software (version 4.5.2, PerkinElmer). Photons detected from tumors were converted to average radiance values (photon/see/cm^2/sr), which are quantitative data obtained from a region of intensity (ROI) and include the photons emitted by bioluminescent cells from an assigned rectangular area over the whole body of each mouse.
Following in vitro proliferation analysis on cancer lines, the present inventors investigated whether AGM-330t-PTX could be a potential therapeutic agent in vivo. The present inventors inoculated MDA-MB-231-luc cells into the mammary fat pad of NPG mice. After the subcutaneous tumors grew to 100 mm^3, comparative efficacy studies were performed by dividing the animals into five groups (n=5/group) treated with vehicle (PBS), AGM-330t (16.68 mg/kg), PTX (2 or 10 mg/kg, respectively) or AGM-330t-PTX (19.05 mg/kg) twice a week by tail vein injection (FIG. 14B). Tumor growth was monitored by measuring volumes twice a week with a caliber rule over the course of 3 weeks.
The present inventors also performed histological staining of the excised tumors, and an independent pathologist evaluated the slides.

Test [3] has as its system human breast cancer cell lines (MCF7 and MDA-MB-231) and human colorectal cancer cell lines (HT-29 and HCT-116). In words: Cell-growth-on-bead assay with resynthesized AGM-330 beads. The test is classed as cell-based. The note with it: MCF7, MDA-MB-231, HT-29, HCT-116. How it is done: (§1) Here, multiple breast and colorectal cancer cells and normal breast and colorectal cells were re-suspended at 10^6 cells/ml and incubated with beads. All experiments were repeated 3 times, and the scale bar is 200 μm. […] Here, nuclei were stained with DAPI (blue), and scale bar is 50 μm. […] Here, a whole-cell binding assay was performed to determine the cell binding of AGM-330, and the scale bar is 200 μm. […] Fmoc=9-fluorenylmethoxycarbonyl, DMF=dimethylformamide. […] Here, bar graphs represent the mean±SD, and statistical analyses were performed by one-way ANOVA with Dunnett's multiple comparison. *, **, and *** indicate P<0.05, P<0.01, and P<0.001, respectively.
The beads were washed extensively with double-distilled water and phosphate-buffered saline (PBS; Welgene Inc., Korea) before screening. Cancer cells and normal cells were detached from culture dishes with trypsin/EDTA (Gibco), washed with their corresponding culture medium, resuspended at 10^6 cells/ml, and incubated with OBOC beads in Petri dishes in a humidified CO2 incubator at 37° C. with shaking (60 rpm). Beads bound by cells appeared under a microscope as rosettes with a central bead covered by one or more layers of cells. […]

Test [4] relates to MDA-MB-231 cells. Description: Confocal imaging of FITC-labeled peptides. The note with it: compared with AGM-331 and AGM-332. The test is classed as cell-based, human.
Test [5] concerns MDA-MB-231 cells. Description: AGM-330 binding to cells after NCL knockdown (fluorescence confocal microscopy). The test is classed as cell-based, human. How it is done: (§2) FIGS. 11A and 11B show the results of fluorescence confocal microscopy of multiple cancer and normal cells. Here, MCF-10A, MCF-7, MDA-MB-231 (FIG. 11A) or CCD-18Co, HT-29, and HCT-116 (FIG. 11B) cells were incubated with 5 μmol/l AGM-330-FITC for 30 min at 37° C. […] Cells were then fixed with 4% paraformaldehyde, and the nuclei were stained with DAPI. Merge represents AGM-330-FITC, NCL, and nuclear staining by DAPI. AGM-330-FITC represents FITC-conjugated AGM-330. Scale bar is 20 μm. […] Here, plasma membrane, cytosol and nuclear NCL were immunoblotted using anti-NCL antibody. […] Here, MDA-MB-231 cells were transfected for 48 hours. Then, 5 μmol/l of AGM-330-FITC was added for 2 hours. […] Fluorescence was observed using a fluorescent confocal microscope. […] FIGS. 11G and 11H show in vivo fluorescence images of mice 30 min, 1 h, 6 h, and 24 h after intravenous injections of 10 nmol free Alexa680 (FIG. 11G) or 10 nmol AGM-330-Alexa680 (FIG. 11H) in MDA-MB-231-luc tumor-bearing mice. Here, fluorescence images of the major organs including the heart, spleen, lung, brain, liver, kidney, and tumors were removed from mice with different treatments. […] FIGS. 11I and 11J are graphs showing the average radiant efficiency of Alexa680-associated fluorescence from live imaging of three animals in tumors (FIG. 11I) and different organs (FIG. 11J). […]

In test [6] the test system is MDA-MB-231-luc tumor. In words: In vivo near-infrared fluorescence imaging in xenograft model of human breast cancer. The note with it: mouse. Further details: species or system mice. The protocol: as §2
Test [7] deals with MCF-10A and CCD-18Co. In words: Cell-growth-on-bead assay, normal cell lines. The test is classed as cell-based, human. The protocol:
as §1
(§3) The beads were washed extensively with double-distilled water and phosphate-buffered saline (PBS; Welgene Inc., Korea) before screening. Cancer cells and normal cells were detached from culture dishes with trypsin/EDTA (Gibco), washed with their corresponding culture medium, resuspended at 10^6 cells/ml, and incubated with OBOC beads in Petri dishes in a humidified CO2 incubator at 37° C. with shaking (60 rpm). Beads bound by cells appeared under a microscope as rosettes with a central bead covered by one or more layers of cells. The positive beads were picked by pipette under an inverted microscope, treated with guanidine-HCL (8 M, 20 min) to remove cells and proteins on the bead surface, and subjected to a second round of screening with normal breast epithelial cells to eliminate false positive binding. Only beads with cell binding at both rounds were sent for peptide sequencing.
(§4) To identify a novel cancer-specific peptide ligand, the present inventors synthesized about 2, 600,000 libraries using 5 g of Tentagel MB NH2 resin (200 μm, 520,000 beads/g; FIG. 3).

Test [8] relates to MDA-MB-231. Description: Whole-cell binding (cell-growth-on-bead) assay of screened peptide beads. The test is classed as cell-based, human. The protocol:
as §1, §3, §4

Test [9] has as its system MCF-10A. The test is described as above. The test is classed as cell-based, human. How it is done:
as §1, §3, §4

`CC(=O)O[C@H]1C(=O)[C@@]2(C)[C@H]([C@H](OC(=O)c3ccccc3)[C@]3(O)C[C@H](OC(=O)[C@H](O)[C@@H](NC(=O)c4ccccc4)c4ccccc4)C(C)=C1C3(C)C)[C@]1(OC(C)=O)CO[C@@H]1C[C@@H]2O` [PTX, Paclitaxel, reference compound]: half-maximal inhibition in test [1] (IC50) was put at 22.1 µM. Moreover, the average tumor volume in test [2] (2 mg/kg twice a week, n=5) was 1671±199 mm^3; in test [2] (10 mg/kg twice a week, day 21, n=5), 988±78 mm^3. Besides, the “final average tumor weight” value in test [2] (2 mg/kg, n=5) was 2.1 ± 0.4 g; in test [2] (10 mg/kg, n=5), 1.5 ± 0.1 g.
“RHGAMVYLK [AGM-330, name also used for its PEGylated MAP dendrimeric forms]”: the “time until beads were fully covered by cancer cell lines” value in test [3] is listed as ≤ 15 min. Also, the “fluorescence signals of FITC-labeled peptide on MDA-MB-231 cells” value in test [4] is given as “strongest fluorescence signals”. For the same compound, the “difference in the average tumor volume versus vehicle (PBS)-treated mice” value in test [2] (16.68 mg/kg) is “no significant difference”. The “fluorescence signal (AGM-330 binding) in siNCL1-treated cells” value in test [5] was “little or no fluorescence signal”. For the same compound, in test [6], the “distribution in tumor tissue versus normal organs (NIRF images)” value is “mainly accumulated throughout the tumor tissue rather than normal organs”. Besides, the “binding to normal cell lines MCF-10A and CCD-18Co” value in [7] is recorded as “bound either very weakly or not at all”. The “binding to MDA-MB-231” value in test [8] is reported as “strong preferential binding”. Besides, the “binding to the human normal breast cell line MCF-10A” value in test [9] is given as “no or only weak binding”.

Usually IC50 stands for the concentration that gives 50% inhibition. A high value points to a need for much substance.
